Measurements from PMC9574867, “Discovery and Characterization of Synthesized and FDA-Approved Inhibitors of Clostridial and Bacillary Collagenases” (Journal of Medicinal Chemistry, 2022).
Like-named read-outs stand apart in the source and are kept apart here.

Tests used:
ColG-CU = ColG-CU (Hathewaya histolytica, UniProt Q9X721); format: biochemical, C. histolyticum; settings: rapid dilution
ColH-PD [1] = target: T1, ColH-PD (Hathewaya histolytica, UniProt Q46085); format: biochemical, C. histolyticum
T1 sequence (Q46085 331-721 limits assumed): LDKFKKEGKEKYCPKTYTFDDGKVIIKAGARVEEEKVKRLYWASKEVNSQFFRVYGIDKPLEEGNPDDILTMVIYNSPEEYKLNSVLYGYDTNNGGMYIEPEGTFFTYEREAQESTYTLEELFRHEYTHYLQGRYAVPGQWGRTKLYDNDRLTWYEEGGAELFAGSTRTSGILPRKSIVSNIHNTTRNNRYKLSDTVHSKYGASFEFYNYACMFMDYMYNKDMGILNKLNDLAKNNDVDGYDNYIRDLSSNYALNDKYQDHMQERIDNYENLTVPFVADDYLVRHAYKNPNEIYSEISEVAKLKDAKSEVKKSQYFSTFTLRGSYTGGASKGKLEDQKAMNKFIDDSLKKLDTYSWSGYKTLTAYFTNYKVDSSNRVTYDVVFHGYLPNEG

ColQ1-CU = ColQ1-CU (Bacillus cereus, UniProt B9J3S4); format: biochemical, B. cereus
ColQ1-CU, sequence (B9J3S4 94-765 limits assumed): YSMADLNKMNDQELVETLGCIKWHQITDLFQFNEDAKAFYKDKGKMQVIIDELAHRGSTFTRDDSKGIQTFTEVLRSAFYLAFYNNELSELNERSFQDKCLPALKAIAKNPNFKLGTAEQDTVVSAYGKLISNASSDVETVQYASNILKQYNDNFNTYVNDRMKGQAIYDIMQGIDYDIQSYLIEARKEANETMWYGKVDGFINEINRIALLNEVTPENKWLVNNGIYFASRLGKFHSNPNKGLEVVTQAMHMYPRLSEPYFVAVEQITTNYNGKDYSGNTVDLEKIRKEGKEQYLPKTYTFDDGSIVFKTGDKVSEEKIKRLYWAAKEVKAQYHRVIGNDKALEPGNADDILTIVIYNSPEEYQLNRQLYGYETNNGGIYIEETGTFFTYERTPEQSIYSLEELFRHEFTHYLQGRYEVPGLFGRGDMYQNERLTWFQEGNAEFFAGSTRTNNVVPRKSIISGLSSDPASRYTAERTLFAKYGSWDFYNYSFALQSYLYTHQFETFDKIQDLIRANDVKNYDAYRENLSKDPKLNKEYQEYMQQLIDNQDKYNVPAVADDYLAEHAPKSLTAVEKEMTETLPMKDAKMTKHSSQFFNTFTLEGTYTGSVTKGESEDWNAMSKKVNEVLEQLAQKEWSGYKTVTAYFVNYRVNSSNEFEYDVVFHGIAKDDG

ColA-CU = ColA-CU (Bacillus cereus, UniProt Q81BJ6); assay: biochemical; format: biochemical, B. cereus strain ATCC14579; settings: 100 μM; read-out: Percent inhibition of ColA-CU
ColA-CU, sequence (Q81BJ6 93-764): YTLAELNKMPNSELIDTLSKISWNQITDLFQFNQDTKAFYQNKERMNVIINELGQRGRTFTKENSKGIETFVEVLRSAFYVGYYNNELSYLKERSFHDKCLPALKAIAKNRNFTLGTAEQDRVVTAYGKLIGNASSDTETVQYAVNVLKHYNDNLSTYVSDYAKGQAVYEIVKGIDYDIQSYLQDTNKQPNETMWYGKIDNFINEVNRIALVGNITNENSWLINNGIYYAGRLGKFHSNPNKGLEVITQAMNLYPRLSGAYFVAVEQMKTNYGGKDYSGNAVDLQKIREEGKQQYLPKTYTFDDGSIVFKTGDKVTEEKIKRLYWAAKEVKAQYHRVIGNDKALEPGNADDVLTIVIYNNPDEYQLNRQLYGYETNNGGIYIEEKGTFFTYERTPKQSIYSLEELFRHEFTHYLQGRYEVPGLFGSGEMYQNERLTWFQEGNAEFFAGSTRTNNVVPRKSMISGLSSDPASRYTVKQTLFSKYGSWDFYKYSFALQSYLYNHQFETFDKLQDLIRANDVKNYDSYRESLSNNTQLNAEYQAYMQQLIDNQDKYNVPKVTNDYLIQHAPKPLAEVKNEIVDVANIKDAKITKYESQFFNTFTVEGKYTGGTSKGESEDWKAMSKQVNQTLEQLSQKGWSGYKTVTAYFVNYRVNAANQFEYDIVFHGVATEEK

COX-1 = COX-1 (Homo sapiens, UniProt P23219); assay: Human off-target inhibition, COX-1; format: biochemical
COX-1, sequence (P23219 24-599): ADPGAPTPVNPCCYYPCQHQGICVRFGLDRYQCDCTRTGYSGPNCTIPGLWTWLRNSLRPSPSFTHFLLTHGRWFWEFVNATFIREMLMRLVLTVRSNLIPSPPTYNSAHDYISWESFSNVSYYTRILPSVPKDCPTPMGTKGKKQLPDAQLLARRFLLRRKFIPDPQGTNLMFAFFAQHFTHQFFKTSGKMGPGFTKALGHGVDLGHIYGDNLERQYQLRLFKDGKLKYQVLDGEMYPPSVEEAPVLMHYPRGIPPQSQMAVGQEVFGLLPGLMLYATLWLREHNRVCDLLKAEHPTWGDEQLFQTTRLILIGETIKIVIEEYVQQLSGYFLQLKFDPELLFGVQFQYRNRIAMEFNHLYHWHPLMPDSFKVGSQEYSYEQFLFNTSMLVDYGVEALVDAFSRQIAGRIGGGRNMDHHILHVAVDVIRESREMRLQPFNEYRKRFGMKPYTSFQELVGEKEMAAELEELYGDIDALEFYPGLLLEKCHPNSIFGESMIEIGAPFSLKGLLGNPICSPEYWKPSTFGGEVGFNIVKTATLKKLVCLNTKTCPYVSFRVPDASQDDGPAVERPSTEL
Procedure: To assess the selectivity of the compounds over human MMPs and on other bacterial collagenases, selected compounds were tested against ColG-CU and ColH-PD from C. histolyticum and ColA-CU from B. cereus strain ATCC14579. In addition, the compounds were tested on catalytic domains of three human MMPs, which are characterized by different depths of the S1′ binding pocket (MMP-1 (shallow), −2 (intermediate), and −3 (deep)). They were also tested against other important human off-targets, which are involved in gene expression and the processing of TNF-α; these include HDAC-3, -8, TACE (ADAM-17),[33],[34] and COX-1.

[2] = system: NHDF cells infected with B. cereus; assay: NHDF infection model, LDH release; format: cell-based, human; settings: 5 h
Procedure: We further evaluated the effect of the diphosphonate and hydroxamate compounds on cell morphology, the fibrillar collagen content of the ECM, and cell viability in the infection model. […] Above a concentration of 25 μM, they were both able to sustain the cells during infection. The cells stayed attached and maintained their spindle shape (Figures S7 and S8), and above 50 μM, we observed a significant reduction in LDH release, indicating higher cell viability.
NHDF cells (1 × 10^5, Promo Cell C-12302) per well were seeded in 24-well plates (Greiner) with DMEM medium (Gibco) containing 10% (v/v) fetal calf serum (FCS, Gibco) and 1% (v/v) glutamine (Gibco). Prior to the treatment, the cells were cultured at 37 °C for 24 h with 5% CO2. In brain heart infusion (BHI) medium, B. cereus AH187 bacteria were cultivated to a mid-exponential phase. The culture was centrifuged at 4000g for 7 min at RT before being rinsed and diluted in PBS. […] The cell morphology was monitored with a light microscope (Olympus) using a 20X objective. […]
The manufacturer’s procedure was followed to measure the released LDH amount in the supernatant of NHDF cells. […] The absorbance was measured at 490 nm with a Tecan Infinite M200 plate reader (Tecan, Grödig, Austria). The cytotoxicity was calculated relative to the control (no inhibitor).

[3] = system: NHDF cells infected with B. cereus; assay: NHDF infection model, cell morphology/attachment and fibrillar collagen (picrosirius red); format: cell-based, human; settings: B. cereus infection, 5 h
in vitro = settings: human, HepG2 cells (hepatocellular carcinoma)
ColH-PD [4] = target: T1, ColH-PD; assay: biochemical; format: biochemical, C. histolyticum; settings: 100 μM; read-out: Percent inhibition of ColH-PD
ColQ1-FL = ColQ1-FL (Bacillus cereus, UniProt B9J3S4); format: biochemical; settings: SDS-PAGE
ColQ1-FL, sequence (B9J3S4 94-965 limits assumed): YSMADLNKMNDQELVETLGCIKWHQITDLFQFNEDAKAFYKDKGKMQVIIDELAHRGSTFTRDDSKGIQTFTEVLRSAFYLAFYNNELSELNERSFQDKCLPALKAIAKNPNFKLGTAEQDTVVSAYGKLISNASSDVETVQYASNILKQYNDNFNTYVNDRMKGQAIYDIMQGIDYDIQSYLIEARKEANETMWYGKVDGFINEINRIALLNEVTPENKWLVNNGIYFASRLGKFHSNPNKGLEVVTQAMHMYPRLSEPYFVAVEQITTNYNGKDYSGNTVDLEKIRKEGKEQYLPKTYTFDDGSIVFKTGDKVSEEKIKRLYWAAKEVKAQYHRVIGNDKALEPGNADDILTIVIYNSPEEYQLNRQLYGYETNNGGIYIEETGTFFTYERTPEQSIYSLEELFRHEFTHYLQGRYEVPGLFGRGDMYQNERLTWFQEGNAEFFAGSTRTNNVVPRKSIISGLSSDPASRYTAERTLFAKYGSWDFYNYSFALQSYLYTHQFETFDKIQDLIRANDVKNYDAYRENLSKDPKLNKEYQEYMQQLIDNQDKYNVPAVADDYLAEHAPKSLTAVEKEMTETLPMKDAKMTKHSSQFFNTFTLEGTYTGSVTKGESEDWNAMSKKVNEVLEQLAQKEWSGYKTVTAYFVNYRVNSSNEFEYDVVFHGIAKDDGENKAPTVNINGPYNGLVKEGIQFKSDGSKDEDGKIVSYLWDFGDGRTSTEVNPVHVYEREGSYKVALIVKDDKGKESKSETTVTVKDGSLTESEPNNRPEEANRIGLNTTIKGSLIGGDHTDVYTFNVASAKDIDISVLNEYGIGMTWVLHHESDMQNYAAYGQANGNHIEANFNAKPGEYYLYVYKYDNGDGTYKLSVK

[5] = system: B. cereus AH187 infection; format: in vivo, Galleria mellonella; settings: for Survival of infected larvae vs control without inhibitor: 37 °C, 3 days
[6] = system: MDCK II cells infected with B. cereus AH187; format: cell-based, canine
[7] = system: Galleria mellonella larvae; assay: Galleria mellonella larvae treated with compound only in PBS; format: in vivo; settings: no bacteria
Procedure: Figure 8 Survival analysis of Galleria mellonella larvae treated with Bacillus cereus AH187 with and without 14 and tiludronate disodium. Each curve represents results of three independent experiments; the statistical difference between groups treated with 100, 50, and 25 μM of compound 14 and B. cereus AH187 and with the group treated only with B. cereus AH187 is p < 0.0001, p = 0.0039, and p = 0.0173, respectively. The statistical difference between groups treated with 100 μM tiludronate disodium and with B. cereus AH187 is p = 0.0032 (log-rank test). The survival rate for the larvae treated with compound 14 and tiludronate disodium in PBS was 100%.
G. mellonella larvae were purchased from a fishing store. Injections were carried out using an LA120 syringe pump (Landgraf Laborsysteme, Langenhagen, Germany) equipped with 1 mL Injekt-F tuberculin syringes (B. Braun, Melsungen, Germany) and Sterican 0.30 × […], 30 G × 1.5 needles (B. Braun). The larvae were divided into five groups depending on their treatment: (i) sterile PBS, (ii) no injection, (iii) only compound, (iv) BC AH187 bacterial suspension, and (v) BC AH187 bacterial suspension with compound. Larvae were incubated at 37 °C for 3 days and inspected twice daily. The total larvae used in all three experiments were 40 larvae per group.

ColG-CU, sequence (Q9X721 111-786): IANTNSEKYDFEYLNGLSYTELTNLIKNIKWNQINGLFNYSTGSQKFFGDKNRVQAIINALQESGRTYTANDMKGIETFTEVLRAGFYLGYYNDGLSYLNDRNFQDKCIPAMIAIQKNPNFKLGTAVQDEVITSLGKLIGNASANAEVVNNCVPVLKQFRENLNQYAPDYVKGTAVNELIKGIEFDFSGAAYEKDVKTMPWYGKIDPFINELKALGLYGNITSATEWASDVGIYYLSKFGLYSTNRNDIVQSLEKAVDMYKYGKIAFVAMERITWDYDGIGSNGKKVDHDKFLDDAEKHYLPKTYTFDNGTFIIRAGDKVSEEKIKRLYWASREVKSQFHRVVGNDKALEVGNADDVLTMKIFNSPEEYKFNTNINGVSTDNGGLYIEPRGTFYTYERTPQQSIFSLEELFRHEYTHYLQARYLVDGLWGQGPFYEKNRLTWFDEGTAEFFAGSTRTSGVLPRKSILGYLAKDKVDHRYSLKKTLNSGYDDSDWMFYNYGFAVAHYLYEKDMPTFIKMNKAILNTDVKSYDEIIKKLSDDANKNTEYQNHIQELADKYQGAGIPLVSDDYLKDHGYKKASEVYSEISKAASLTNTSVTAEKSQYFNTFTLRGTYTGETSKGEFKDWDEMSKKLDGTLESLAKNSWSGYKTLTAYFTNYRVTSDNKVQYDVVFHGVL

Row | SMILES | Reversibility of inhibition, ColG (ColG-CU) | Reversibility of inhibition, ColH (ColH-PD [1]) | Residual activity after rapid dilution (ColQ1-CU; 30 min preincubation at 10-fold IC50, 100-fold dilution) | Reversibility of inhibition, ColQ1-CU (ColQ1-CU; rapid dilution) | inhibition at 100 µM (ColA-CU) | IC50 (COX-1) | Concentration above which LDH release was significantly reduced [2] | Concentration above which infected cells were sustained (attached, spindle shape) [3] | IC50 (in vitro) | inhibition at 100 µM (ColH-PD [4]) | Concentration above which Col I chains were maintained (ColQ1-FL; 1 mg/mL Col I, 50 ng ColQ1-FL) | Increase in survival of infected larvae ([5]; 50 μM) | Increase in survival of infected larvae ([5]; 200 μM) | Survival of infected larvae vs control without inhibitor [5] | TEER of infected MDCK II cells [6] | Survival rate of larvae treated with compound in PBS [7] | Protection of Col I chains from cleavage by ColQ1-FL (ColQ1-FL; 12.5–1.5 μM tested) | Effect on survival of infected larvae ([5]; 25 μM) | Increase in survival of infected larvae ([5]; 100 μM)
1 | O=P(O)(O)c1nc2cc(Cl)c(Cl)cc2nc1P(=O)(O)O [Compound 13, (6,7-Dichloroquinoxaline-2,3-diyl)bis(phosphonic acid)] | rapidly reversible inhibitors | reversed compared to ColA | less than 9% | very slowly dissociating reversible binder | 71 ± 4% | > 100 µM | above 50 μM | > 25 µM | > 100 µM | 83 ± 9% | above 3 μM | 5% | about 35% | ameliorated the survival of the larvae in a dose-dependent manner | failed to sustain the TEER of the infected cells |  |  |  | 
2 | O=C(Nc1ccc(Cl)c(Cl)c1)c1ccc2nc(P(=O)(O)O)c(P(=O)(O)O)nc2c1 [Compound 14, (6-((3,4-Dichlorophenyl)carbamoyl)quinoxaline-2,3-diyl)bis(phosphonic acid)] |  |  |  |  | 82 ± 2% | > 100 µM | above 50 μM | > 25 µM | > 100 µM | 96 ± 2% |  |  |  | ameliorated the survival of the larvae in a dose-dependent manner | preserve the TEER value | 100% | inhibited the collagenase activity at all concentrations tested | reduced effect | around 50%
